# Key:
# [1] = system: lambsquarters; assay: Test C pre-/postemergence herbicide test; type: in vivo, Chenopodium album; conditions: for Lambsquarters plant response rating: 500 g ai/ha
# Procedure, shortened: (§1)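 Seeds were planted and sprayed preemergence with test chemicals in a non-phytotoxic solvent mixture containing surfactant; postemergence treatments went onto plants 2 to 18 cm tall (1- to 4-leaf stage). After 12 to 14 days in a greenhouse, injury was rated visually against untreated controls on a 0–100 scale.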
# [2] = system: cocklebur; assay: Test C pre-/postemergence herbicide test; type: in vivo, Xanthium strumarium; conditions: for Cocklebur plant response rating: 500 g ai/ha
# Procedure, shortened: as §1
# [3] = system: rice; assay: Test C flooded paddy test; type: in vivo, Oryza sativa; conditions: for Plant response rating, Rice: 500 g ai/ha, visual rating after 12 to 14 days
# Procedure, shortened: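 Plants were grown to the 1- to 4-leaf stage (2–18 cm) and then treated postemergence, or grown to the 2-leaf stage for the flooded paddy test. They were held in a greenhouse for 12 to 14 days and then scored by eye against controls, where 0 is no effect and 100 is complete control.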
# [4] = system: soybean; assay: Test C pre-/postemergence herbicide test; type: in vivo, Glycine max; conditions: for Soybean plant response rating: 500 g ai/ha
# Procedure, shortened: as §1
# [5] = system: common ragweed; assay: Test C pre-/postemergence herbicide test; type: in vivo, Ambrosia elatior; parameters: key to Plant response rating, Ragweed: 0 = no effect, 100 = complete control; conditions: for Ragweed plant response rating: 500 g ai/ha
# Procedure, shortened: as §1
# [6] = system: morningglory; assay: Test A pre-/postemergence herbicide test; type: in vivo, Ipomoea spp.
# Procedure, shortened: (§2)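 Seeds sown in sandy loam received a preemergence directed soil spray of compound in non-phytotoxic solvent with surfactant; postemergence plants (2–10 cm, one- to two-leaf stage) were sprayed to runoff at the same time. After ~10 days in greenhouse, injury was rated visually versus untreated controls (0 = no effect, 100 = complete control).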
# [7] = system: rice; assay: Test B pre-/postemergence herbicide test; type: in vivo, Oryza sativa; conditions: preemergence
# Procedure, shortened: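 Evaluation is visual, comparing treated with control plants on a scale where 0 means no effect and 100 means full control. Treatments were preemergence, or postemergence on seedlings 2–18 cm tall, and held 13–15 days in the greenhouse.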
# [8] = system: velvetleaf; assay: Test A pre-/postemergence herbicide test; type: in vivo, Abutilon theophrasti
# Procedure, shortened: as §2
# [9] = system: yellow nutsedge; assay: Test C pre-/postemergence herbicide test; type: in vivo, Cyperus esculentus; conditions: for Nutsedge, Yellow plant response rating: 500 g ai/ha
# Procedure, shortened: as §1
# [10] = system: common (oilseed) sunflower; assay: Test C pre-/postemergence herbicide test; type: in vivo, Helianthus annuus; conditions: for Plant response rating (0 = no effect, 100 = complete control), Sunflower / Plant response rating, Sunflower: preemergence; for Sunflower plant response rating: Preemergence, 500 g ai/ha, scale 0 to 100, 0 no effect, 100 complete control
# Procedure, shortened: as §1
# [11] = Postemergence, 250 g ai/ha, scale 0 to 100, 0 no effect, 100 complete control
# [12] = postemergence, 125 g ai/ha, scale 0 to 100
# [13] = postemergence, 62 g ai/ha, scale 0 to 100
# [14] = 125 g ai/ha, scale 0 (no effect) to 100 (complete control), visual, 12 to 14 days, preemergence
# [15] = 250 g ai/ha, scale 0 to 100 (0 no effect, 100 complete control), visual, 12 to 14 days, preemergence
# [16] = Preemergence, scale 0 to 100, 0 no effect, 100 complete control
# [17] = 62 g ai/ha, scale 0 to 100 (0 no effect, 100 complete control)
# [18] = 125 g ai/ha, scale of 0 to 100, 0 is no effect, 100 is complete control
# [19] = 250 g ai/ha, scale of 0 to 100, 0 is no effect, 100 is complete control
# [20] = scale 0 to 100 (0 no effect, 100 complete control)
# [21] = Postemergence, 500 g ai/ha, 0 to 100 scale, 0 no effect, 100 complete control
# [22] = Postemergence, 2000 g ai/ha, 0 to 100 scale, 0 no effect, 100 complete control
# [23] = Preemergence, 500 g ai/ha, visual rating, 0 to 100 scale (0 no effect, 100 complete control)
# [24] = Preemergence, 2000 g ai/ha, 0 to 100 scale, 0 no effect, 100 complete control
# [25] = 500 g ai/ha, visual rating 0-100, 0 no effect, 100 complete control
# [26] = 125 g ai/ha, 0 to 100 scale, 0 is no effect, 100 is complete control
# [27] = Preemergence, 2000 g ai/ha, visual rating, 0 to 100 scale (0 no effect, 100 complete control)
# [28] = 125 g ai/ha, scale 0 (no effect) to 100 (complete control), visual, 12 to 14 days
# [29] = 62 g ai/ha, preemergence, scale 0 to 100
# [30] = 250 g ai/ha, scale 0-100, preemergence
# [31] = preemergence, 500 g ai/ha, visual injury, 0 to 100 scale (0 no effect, 100 complete control)
compound,measurement,setting,value
CCOC(=O)c1cc(NC(=O)c2cc(C(C)(C)C)nn2CC)ccc1OC [Compound 96],Lambsquarters plant response rating,"[1]; Postemergence, scale 0 to 100",100
same,"Plant response rating, Lambsquarters",[1]; [11],95
same,"Plant response rating, Lambsquarters",[1]; [12],80
same,"Plant response rating, Lambsquarters",[1]; [13],60
same,"Plant response rating (0 = no effect, 100 = complete control), Cocklebur","[2]; 62 g ai/ha, preemergence",0
same,"Plant response rating, Cocklebur",[2]; [14],5
same,"Plant response rating, Cocklebur",[2]; [15],20
same,Cocklebur plant response rating,"[2]; Postemergence, scale 0 to 100",95
same,"Plant response rating, Cocklebur",[2]; [11],90
same,Cocklebur plant response rating,[2]; [16],90
same,"Plant response rating, Cocklebur",[2]; [12],10
same,"Plant response rating, Cocklebur",[2]; [13],5
same,Rice plant response rating,[3]; [17],40
same,Rice plant response rating,[3]; [18],45
same,Rice plant response rating,[3]; [19],70
same,"Plant response rating, Rice",[3]; [20],75
same,"Plant response rating (0 = no effect, 100 = complete control), Soybean","[4]; 62 g ai/ha, preemergence",0
same,"Plant response rating, Soybean",[4]; [14],5
same,Soybean plant response rating,"[4]; Postemergence, scale 0 to 100",100
same,"Plant response rating, Soybean",[4]; [11],100
same,Soybean plant response rating,[4]; [16],50
same,"Plant response rating, Soybean",[4]; [12],100
same,"Plant response rating, Soybean",[4]; [13],100
same,"Plant response rating (0 = no effect, 100 = complete control), Ragweed","[5]; 62 g ai/ha, preemergence",50
same,"Plant response rating, Ragweed",[5]; [14],90
same,Ragweed plant response rating,"[5]; Postemergence, scale 0 to 100",85
same,"Plant response rating, Ragweed",[5]; [11],80
same,Ragweed plant response rating,[5]; [16],100
same,"Plant response rating, Ragweed",[5]; [12],50
same,"Plant response rating, Ragweed",[5]; [13],50
same,Morningglory plant response rating,[6]; [21],10
same,"Plant response rating, Morningglory",[6]; [22],15
same,Morningglory plant response rating,[6]; [23],25
same,Morningglory plant response rating,[6]; [24],70
same,"Plant response rating, Rice",[7]; [25],70
same,"Plant response rating, Rice",[7]; [26],60
same,Velvetleaf plant response rating,[8]; [21],70
same,"Plant response rating, Velvetleaf",[8]; [22],70
same,Velvetleaf plant response rating,[8]; [23],95
same,Velvetleaf plant response rating,[8]; [27],100
same,"Plant response rating (0 = no effect, 100 = complete control), Nutsedge, Yellow","[9]; 62 g ai/ha, preemergence",0
same,"Plant response rating, Nutsedge, Yellow",[9]; [14],0
same,"Nutsedge, Yellow plant response rating","[9]; Postemergence, scale 0 to 100",5
same,"Plant response rating, Nutsedge, Yellow",[9]; [11],5
same,"Nutsedge, Yellow plant response rating",[9]; [16],10
same,"Plant response rating, Nutsedge, Yellow",[9]; [12],0
same,"Plant response rating, Nutsedge, Yellow",[9]; [13],0
same,"Plant response rating (0 = no effect, 100 = complete control), Sunflower",[10]; 62 g ai/ha,0
same,"Plant response rating, Sunflower",[10]; [28],0
same,Sunflower plant response rating,[10],35
C=CCNC(=O)c1cccc(NC(=O)c2sc(C(C)(C)C)nc2CC)c1 [Compound 207],"Plant response rating, Lambsquarters",[1]; [29],90
same,"Plant response rating, Lambsquarters",[1]; [14],95
same,"Plant response rating, Lambsquarters",[1]; [30],95
same,Lambsquarters plant response rating,[1]; [16],95
same,"Plant response rating, Cocklebur",[2]; [29],0
same,"Plant response rating, Cocklebur",[2]; [14],0
same,"Plant response rating, Cocklebur",[2]; [30],0
same,Cocklebur plant response rating,[2]; [16],0
same,Rice plant response rating,[3]; [17],30
same,Rice plant response rating,"[3]; 125 g ai/ha, scale 0 to 100 (0 no effect, 100 complete control)",45
same,Rice plant response rating,[3]; [19],50
same,"Plant response rating, Rice",[3]; [20],60
same,"Plant response rating, Soybean",[4]; [29],0
same,"Plant response rating, Soybean",[4]; [14],0
same,"Plant response rating, Soybean",[4]; [30],0
same,Soybean plant response rating,[4]; [16],0
same,"Plant response rating, Ragweed",[5]; [29],40
same,"Plant response rating, Ragweed",[5]; [14],50
same,"Plant response rating, Ragweed",[5]; [30],60
same,Ragweed plant response rating,[5]; [16],100
same,Morningglory plant response rating,[6]; [21],20
same,"Plant response rating, Morningglory",[6]; [22],15
same,Morningglory plant response rating,[6]; [27],85
same,Morningglory plant response rating,[6]; [31],35
same,Rice plant response rating (0 to 100 scale),"[7]; 125 g ai/ha, 0 = no effect, 100 = complete control",50
same,"Plant response rating, Rice",[7]; [25],70
same,Velvetleaf plant response rating,[8]; [21],20
same,"Plant response rating, Velvetleaf",[8]; [22],25
same,Velvetleaf plant response rating,[8]; [27],100
same,Velvetleaf plant response rating,[8]; [31],30
same,"Plant response rating, Nutsedge, Yellow",[9]; [29],0
same,"Plant response rating, Nutsedge, Yellow",[9]; [14],0
same,"Plant response rating, Nutsedge, Yellow",[9]; [30],20
same,"Nutsedge, Yellow plant response rating",[9]; [16],20
same,"Plant response rating, Sunflower","[10]; 62 g ai/ha, scale 0 to 100",0
same,"Plant response rating, Sunflower",[10]; [28],0
same,"Plant response rating, Sunflower","[10]; 250 g ai/ha, scale 0-100",0
same,Sunflower plant response rating,[10],0
CCn1nc(C(C)(C)C)cc1C(=O)Nc1cccc2c1CCN(C1CC1)C2=O [Compound 64],"Plant response rating (0 = no effect, 100 = complete control), Lambsquarters","[1]; 62 g ai/ha, preemergence",0
same,"Plant response rating, Lambsquarters",[1]; [14],0
same,Lambsquarters plant response rating,[1]; [16],90
same,"Plant response rating (0 = no effect, 100 = complete control), Cocklebur","[2]; 62 g ai/ha, preemergence",0
same,"Plant response rating, Cocklebur",[2]; [14],0
same,"Plant response rating, Cocklebur",[2]; [15],0
same,Cocklebur plant response rating,[2]; [16],0
same,Rice plant response rating,[3]; [17],0
same,Rice plant response rating,[3]; [18],0
same,Rice plant response rating,[3]; [19],0
same,"Plant response rating, Rice",[3]; [20],15
same,"Plant response rating (0 = no effect, 100 = complete control), Soybean","[4]; 62 g ai/ha, preemergence",0
same,"Plant response rating, Soybean",[4]; [14],0
same,Soybean plant response rating,[4]; [16],60
same,"Plant response rating (0 = no effect, 100 = complete control), Ragweed","[5]; 62 g ai/ha, preemergence",0
same,"Plant response rating, Ragweed",[5]; [14],0
same,Ragweed plant response rating,[5]; [16],20
same,"Plant response rating, Morningglory",[6]; [21],10
same,"Plant response rating, Morningglory",[6]; [22],10
same,Morningglory plant response rating,[6]; [23],0
same,Morningglory plant response rating,[6]; [24],5
same,"Plant response rating, Rice",[7]; [26],0
same,"Plant response rating, Velvetleaf",[8]; [22],30
same,Velvetleaf plant response rating,[8]; [23],10
same,Velvetleaf plant response rating,[8]; [27],35
same,"Plant response rating (0 = no effect, 100 = complete control), Nutsedge, Yellow","[9]; 62 g ai/ha, preemergence",0
same,"Plant response rating, Nutsedge, Yellow",[9]; [14],0
same,"Nutsedge, Yellow plant response rating",[9]; [16],0
same,"Plant response rating (0 = no effect, 100 = complete control), Sunflower",[10]; 62 g ai/ha,0
same,"Plant response rating, Sunflower",[10]; [28],0
same,Sunflower plant response rating,[10],0
